ChEMBL document CHEMBL1144869, “Introduction of a chemical constraint in a short peptide derived from human acidic fibroblast growth factor elicits mitogenic structural determinants” (2003)

Columns and labels:
NIH3T3 = assay: Displacement of human acidic FGF from FGF receptor of mouse 3T3 cells at 0-200 uM; assay type: cell-based
Mus musculus = species on record: Mus musculus; assay: Mitogenic effect on BALB/c 3T3 A31 fibroblast culture at 0-200 uM; assay type: functional; settings: BALB/c3T3, read-out: ED50 (the source's name)

| SMILES | ID50 (NIH3T3) | EC50 (Mus musculus) |
| --- | --- | --- |
| CC(=O)N[C@@H](Cc1c[nH]c2ccccc12)C(=O)N[C@@H](Cc1ccccc1)C(=O)N[C@H](C(=O)NCC(=O)N[C@@H](CC(C)C)C(=O)N[C@@H](CCCCN)C(=O)N[C@@H](CCCCN)C(=O)N[C@@H](CC(N)=O)C(=O)NCC(=O)N[C@@H](CO)C(=O)N[C@@H](CO)C(=O)N[C@@H](CCCCN)C(=O)N[C@@H](CCCN=C(N)N)C(=O)NCC(=O)N1CCC[C@@H]1C(=O)N[C@@H](CCCN=C(N)N)C(=O)N[C@H](C(N)=O)[C@@H](C)O)C(C)C | 50 µM |  |
| CC(=O)N[C@@H](Cc1c[nH]c2ccccc12)C(=O)N[C@@H](Cc1ccccc1)C(=O)N[C@H](C(=O)NCC(=O)N[C@@H](CC(C)C)C(=O)N[C@@H](CCCCN)C(=O)N[C@@H](CCCCN)C(=O)N[C@@H](CC(N)=O)C(=O)NCC(=O)N[C@@H](CO)C(=O)N[C@@H](CO)C(=O)N[C@@H](CCCCN)C(=O)N[C@@H](CCCN=C(N)N)C(=O)NCC(=O)N1CCC[C@H]1C(=O)N[C@@H](CCCN=C(N)N)C(=O)N[C@H](C(N)=O)[C@@H](C)O)C(C)C |  | 20 µM |
